Test results as given in patent US12600696B2 (XENIOPRO GMBH, priority 2017, dated 2026).

Test system: Notch signaling (hNotch1ΔE, human Notch1 receptor) in HeLa cells
Experiment: Notch reporter assay (luciferase luminescence readout in transfected HeLa cells)
Format: cell-based
Conditions: 20 hours; for fold induction at 10 µM: Homo sapiens, relative to DMSO baseline level of 1.0, read-out: AVEw, weighted arithmetic mean of double-normalized Notch-reporter luciferase luminescence values (Activity Range)
Protocol: An according Notch-reporter assay, i.e. a luciferase-based luminescence readout, was used here to quantify the ability of the claimed small molecules to augment Notch signaling in a cellular system. For this purpose, HeLa cells, obtainable from the American Type Culture Collection (ATCC) under the accession number ATCC-CCL-2, were transiently transfected for 24 hours using FuGENE® HD (Promega, #E2311) as transfection reagent with expression vectors of a membrane-tethered form of the constitutively active intracellular domain of the human Notch1 receptor (hNotch1ΔE) to activate the signaling cascade (BPS Bioscience, human analogue to Notch Pathway Reporter Kit #60509 component C), a Firefly luciferase being expressed under the control of a Notch-responsive promoter to monitor Notch signaling (BPS Bioscience, Notch Pathway Reporter Kit #60509, CSL luciferase reporter vector from component A not premixed with Renilla luciferase vector), and a Renilla luciferase being constitutively expressed in a Notch signaling independent manner to include a measure for the cell number per sample (Promega, pRL-SV40, #E2231). HeLa cells were cultivated according to the protocol of the provider in DMEM medium (Fisherscientific, #11584456) containing 10% fetal bovine serum (Fisherscientific, #15517589). The transfection was carried out in a 100 mm-culture dish (StarLab, #CC7682-3394) with cells being properly attached to the plate at a cell confluency of 80-90% in a total volume of 7 mL culture medium. Per dish to be transfected, a transfection mix was prepared by adding to 238 μL Opti-MEM (Fisherscientific, #10149832) 40 μL of the hNotch1ΔE expression vector (100 ng/μL), 80 μL of the CSL luciferase reporter vector (40 ng/μL), 4 μL of the pRL-SV40-Renilla luciferase vector (10 ng/μL), and in the last step 18.1 μL of FuGENE® HD. After addition of FuGENE® HD the transfection mix was let stand for 15 min at room temperature and hereafter equally distributed into the culture dish. Subsequently, i.e. after 24 hours of transfection, the transfected cells (10.000 cells per well) were incubated with the test-compounds at a final concentration of 10 μM (diluted from 10 mM stock-solutions in DMSO to a final DMSO concentration of 0.1% v/v) or with the empty carrier DMSO at 0.1% v/v as control for 20 hours in 96-well plates suitable for luminescence readouts (CORNING, #3610). Hereafter, the cells were lysed with 30 μL per well of Passive Lysis Buffer (Promega, #E194A, component of Dual-Luciferase® Reporter Assay System, #E1910) and the Firefly as well as Renilla luciferase values were measured with a luminescence reader with applying 15 μL per well each of the corresponding enzyme substrates needed to create the luminescence signals (Promega, Dual-Luciferase® Reporter Assay System, #E1910).
The suitability of the assays for monitoring Notch signaling was controlled by additionally including a generally accepted commercial Notch inhibitor, i.e. DAPT, as negative control, as well as the reported Notch enhancer resveratrol (RES) as positive control (Pinchot et al., Cancer 2011, 117, 1386-1398; Truong et al., Ann. Surg. Oncol. 2011, 18, 1506-1511; Yu et al., Mol. Cancer Ther. 2013, 12, 1276-1287). Both control compounds were likewise tested at 10 μM.
Per single experiment the measurement was performed in six replicates per compound. For every compound, this experiment was repeated in three or more independent replicates. The values of the Notch-reporter luciferase were normalized by division through the corresponding individual Notch-independent Renilla values in order to eliminate the impact of variation in the absolute cell-numbers in between the samples. For every individual plate, a second normalization was performed against the equally weighted arithmetic mean (here abbreviated as AVE) of the six associated Renilla-normalized DMSO-control values within a single experiment in order to obtain the relative values to a baseline level of 1.0. […]

In the case of `CCCc1ccc(Oc2ccc(C(=O)O)cc2)cc1` [Compound 003, 4-(4-propylphenoxy)benzoic acid], the fold induction at 10 µM was 1.7 to 2.
`CCCCc1ccc(Oc2ccc(C(=O)O)cc2)cc1` [Compound 004, 4-(4-butylphenoxy)benzoic acid] showed a fold induction at 10 µM of 1.4 to 1.7.
`CCCCCc1ccc(Oc2ccc(C(=O)O)cc2)cc1` [Compound 005, 4-(4-Pentylphenoxy)benzoic acid] showed a fold induction at 10 µM of 1.7 to 2.
`CC(C)c1ccc(Oc2ccc(C(=O)O)cc2)cc1` [Compound 007, 4-(4-isopropylphenoxy)benzoic acid] showed a fold induction at 10 µM of 1.2 to 1.3.
For `O=C(O)c1ccc(Oc2ccc(C3C[C@@H]4CC[C@H]3C4)cc2)cc1` (stereo partly drawn) [Compound 019, 4-(4-((1S,4R)-bicyclo[2.2.1]heptan-2-yl)phenoxy)benzoic acid], the fold induction at 10 µM was 1.2 to 1.3.
Molecule `CCCc1ccc(Oc2ccc(C(=O)OC)cc2)cc1` [Compound 025, methyl 4-(4-propylphenoxy)benzoate] has a fold induction at 10 µM of 1.2 to 1.3.
With `CCCCc1ccc(Oc2ccc(C(=O)OC)cc2)cc1` [Compound 026, methyl 4-(4-butylphenoxy)benzoate] the fold induction at 10 µM was 1.4 to 1.7.
`CCCCCc1ccc(Oc2ccc(C(=O)OC)cc2)cc1` [Compound 027, methyl 4-(4-pentylphenoxy)benzoate] was tested, and the fold induction at 10 µM was 1.7 to 2.
With `CCCc1ccc(Oc2ccc(C(=O)OCC)cc2)cc1` [Compound 050, ethyl 4-(4-propylphenoxy)benzoate] the fold induction at 10 µM was 1.4 to 1.7.
Work on `CCCCc1ccc(Oc2ccc(C(=O)OCC)cc2)cc1` [Compound 051, Ethyl 4-(4-butylphenoxy)benzoate] yielded a fold induction at 10 µM of 1.7 to 2.
For `CCCCCc1ccc(Oc2ccc(C(=O)OCC)cc2)cc1` [Compound 052, ethyl 4-(4-pentylphenoxy)benzoate], the fold induction at 10 µM was 1.4 to 1.7.
`CCCc1ccc(Oc2ccc(C(=O)O)cn2)cc1` [Compound 071, 6-(4-Propylphenoxy)nicotinic acid] gave a fold induction at 10 µM of 1.4 to 1.7.
For `COC(=O)c1ccc(Oc2ccc(C)cc2)nc1` [Compound 091, methyl 6-(p-tolyloxy)nicotinate], the fold induction at 10 µM was 1.2 to 1.3.
`COC(=O)c1ccc(Oc2ccc(C34CC5CC(CC(C5)C3)C4)cc2)nc1` [Compound 114, Methyl 6-(4-(adamantan-1-yl)phenoxy)nicotinate] showed a fold induction at 10 µM of 1.7 to 2.
Work on `CCOC(=O)c1ccc(Oc2ccc(CC)cc2)nc1` [Compound 117, Ethyl 6-(4-Ethylphenoxy)nicotinate] yielded a fold induction at 10 µM of 1.4 to 1.7.
In the case of `CCCc1ccc(Oc2ccc(C(=O)OCC)cn2)cc1` [Compound 118, ethyl 6-(4-propylphenoxy)nicotinate], the fold induction at 10 µM was 1.1 to 1.2.
`CCCCCc1ccc(Oc2ccc(C(=O)OCC)cn2)cc1` [Compound 120, ethyl 6-(4-pentylphenoxy)nicotinate] gave a fold induction at 10 µM of 1.4 to 1.7.
With `CCOC(=O)c1ccc(Oc2ccc(C(C)C)cc2)nc1` [Compound 122, ethyl 6-(4-isopropylphenoxy)nicotinate] the fold induction at 10 µM was 1.3 to 1.4.
In the case of `CNC(=O)c1ccc(Oc2ccc(C)cc2)cc1` [Compound 189, N-methyl-4-(p-tolyloxy)benzamide], the fold induction at 10 µM was 1.1 to 1.2.
With `CNC(=O)c1ccc(Oc2ccc(C(C)C)cc2)cc1` [Compound 195, 4-(4-Isopropylphenoxy)-N-methylbenzamide] the fold induction at 10 µM was 1.2 to 1.3.
In the case of `CN(C)C(=O)c1ccc(Oc2ccc(C3CCCCC3)cc2)cc1` [Compound 234, 4-(4-cyclohexylphenoxy)-N,N-dimethylbenzamide], the fold induction at 10 µM was 1.1 to 1.2.
With `Cc1ccc(Oc2ccc(C(N)=O)cn2)cc1` [Compound 241, 6-(p-Tolyloxy)nicotinamide] the fold induction at 10 µM was 1.2 to 1.3.
In the case of `CCc1ccc(Oc2ccc(C(N)=O)cn2)cc1` [Compound 242, 6-(4-ethylphenoxy)nicotinamide], the fold induction at 10 µM was 1.2 to 1.3.
Molecule `CC(C)c1ccc(Oc2ccc(C(N)=O)cn2)cc1` [Compound 247, 6-(4-isopropylphenoxy)nicotinamide] has a fold induction at 10 µM of 1.2 to 1.3.
Molecule `CNC(=O)c1ccc(Oc2ccc(C)cc2)nc1` [Compound 291, N-methyl-6-(p-tolyloxy)nicotinamide] has a fold induction at 10 µM of 1.4 to 1.7.
With `CCc1ccc(Oc2ccc(C(=O)NC)cn2)cc1` [Compound 292, 6-(4-ethylphenoxy)-N-mtehylnicotinamide] the fold induction at 10 µM was 1.3 to 1.4.
For `CNC(=O)c1ccc(Oc2ccc(C(C)C)cc2)nc1` [Compound 297, 6-(4-Isopropylphenoxy)-N-methylnicotinamide], the fold induction at 10 µM was 1.4 to 1.7.
In the case of `CCCc1ccc(Oc2ccc(C(=O)O)cc2F)cc1` [Compound 343, 3-fluoro-4-(4-propylphenoxy)benzoic acid], the fold induction at 10 µM was 1.1 to 1.2.
`CCCCc1ccc(Oc2ccc(C(=O)O)cc2F)cc1` [Compound 344] showed a fold induction at 10 µM of 1.3 to 1.4.
Work on `O=C(O)c1ccc(Oc2ccc(C34CC5CC(CC(C5)C3)C4)cc2)c(F)c1` [Compound 363, 4-(4-((3r,5r,7r)-adamantan-1-yl)phenoxy)-3-fluorobenzoic acid] yielded a fold induction at 10 µM of 1.2 to 1.3.
In the case of `CCCc1ccc(Oc2ccc(C(=O)OCC)cc2F)cc1` [Compound 394, ethyl 3-fluoro-4-(4-propylphenoxy)benzoate], the fold induction at 10 µM was 1.4 to 1.7.
Molecule `CCCCCc1ccc(Oc2ccc(C(=O)OCC)cc2F)cc1` [Compound 396, ethyl 3-fluoro-4-(4-pentylphenoxy)benzoate] has a fold induction at 10 µM of 1.2 to 1.3.
Work on `CCC(C)(C)c1ccc(Oc2ncc(C(=O)OC)cc2F)cc1` [Compound 451, Methyl 5-fluoro-6-(4-(tert-pentyl)phenoxy)nicotinate] yielded a fold induction at 10 µM of 1.1 to 1.2.
In the case of `O=C(O)c1ccc(Oc2ccc(C3(C(F)(F)F)CC3)cc2)cc1` [Compound 703, 4-(4-(1-(Trifluoromethyl)cyclopropyl)phenoxy)benzoic acid], the fold induction at 10 µM was 1.1 to 1.2.
For `O=C(O)c1ccc(Oc2ccc(C3(C(F)(F)F)CC3)cc2)nc1` [Compound 730, 6-(4-(1-(Trifluoromethyl)cyclopropyl)phenoxy)nicotinic acid], the fold induction at 10 µM was 1.1 to 1.2.
For `C[C@H](NC(=O)Cc1cc(F)cc(F)c1)C(=O)N[C@H](C(=O)OC(C)(C)C)c1ccccc1` [DAPT, reference compound], the “AVEw, weighted arithmetic mean of double-normalized Notch-reporter luciferase luminescence values (Activity Range)” value (10 μM, relative to DMSO baseline level of 1.0) was 0.1 ± 0.0.
